Source: PubChem BioAssay AID179 (DTP/NCI, 2004)
pEC50, pIC50: −log10 of the molar value. “And” between values parts separate entries of the source, which are not always exact repeats. Equal values may be shown once. The source made the active and inactive calls.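 How the source made its calls: active means compounds giving half or more protection of infected cells from virus-caused growth loss, again on retest; inactive means the rest.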 Where a SMILES comes first, the peptide text is derived from it. [ ]: non-standard residue; d: D form. The star is where a group is joined. ξ: configuration not given here. NMeF = CN[CH](Cc1ccccc1)C(=O)O; ξNMe2Val = CC(C)C(C(=O)*)N(C)C; NMeV = CN[CH](C(=O)O)C(C)C; OtBu = CC(C)(C)O*

System: CEM cells HIV-1 protection, formazan growth assay
Assay: NCI AIDS Antiviral Assay
Conditions: for pIC50: measured here: growth of uninfected CEM cells
Outline: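 Steps: treat uninfected and HIV-1-infected human CEM cells at five drug levels; quantify growth by soluble formazan; retest any compound reaching 50% protection; classify actives from the retest.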

## CCOC(=O)C(NC(=O)NC(C(=O)OCC)C(=O)OCC)C(=O)OCC
  pEC50: < 3.70
  pIC50: < 3.70

## CC(C)C(=O)OCC1CCCN2CCCCC12 (stereo not drawn)
  pEC50: < 3.70
  pIC50: < 4.00

## O=C1c2ccccc2C(=O)c2c1ccc1c2[nH]c2ccccc21
  outcome: inactive

## CCN(CC)c1ccc2c(c1)Oc1cc(N(CC)CC)ccc1C2c1ccccc1C(=O)O
  pEC50: < 3.70
  pIC50: < 3.70

## O=C(Nc1cccc(-c2nc3ccccc3[nH]2)c1)c1ccc(C(=O)Nc2cccc(-c3nc4ccccc4[nH]3)c2)cc1
  pEC50: < 3.70
  pIC50: 4.04

## Clc1ccc(CCn2cncn2)cc1
  pEC50: < 3.27
  pIC50: 3.28

## Nc1nc(Cl)c(C=O)c(NCC2(CO)CCC2)n1
  pEC50: < 3.70
  pIC50: 5.54

## c1ccc(N2N=NC3C4CC(C5CCCC54)C32)cc1 (stereo not drawn)
  pEC50: < 3.70
  pIC50: < 4.00

## CCC[CH2][Sn]1([CH2]CCC)[O]CC(Cc2ccccc2)[O]1 (stereo not drawn)
  pEC50: < 4.77
  pIC50: 6.48

## COC(=O)C(CC(=O)c1c[nH]c2ccccc12)c1c[nH]c2ccccc12 (stereo not drawn)
  outcome: inactive

## COc1ccc(C2=C(OC(C)=O)c3cccn3-c3ccc(Cl)cc3S2)cc1
  pEC50: < 3.70
  pIC50: 4.91

## Cc1ccc(S(=O)(=O)N(C)c2ccccc2)cc1
  pEC50: < 3.70
  pIC50: 4.28

## C=[N+]([O-])CCC1(O)C(CO[Si](C)(C)C(C)(C)C)OC(n2ccc(=O)[nH]c2=O)C1O[Si](C)(C)C(C)(C)C (stereo not drawn)
  pEC50: < 3.70
  pIC50: 4.92

## O=C(CSSCC(=O)Nc1ccc(Br)cc1)Nc1ccc(Br)cc1
  outcome: inactive

## N#C/C(=C\c1ccc(O)c(O)c1)C(=O)N[C@@H]1CCC[C@@H](NC(=O)/C(C#N)=C/c2ccc(O)c(O)c2)C1
  pEC50: < 3.70
  pIC50: 4.91

## CCCCOCc1cc(CN2CCN(C)CC2)c(O)c2ncccc12
  pEC50: < 3.84
  pIC50: 5.06

## CC1(C)CCCC2(C)[C@@H]1CC[C@@]13CC(=O)[C@@](C)(CC[C@@H]21)C3 (stereo partly drawn)
  pEC50: < 4.04
  pIC50: < 4.04

## CCCCn1cnc2ccc3[nH]c(C)nc3c2c1=O
  pEC50: < 3.12
  pIC50: 4.26

## CCSc1nc2cccc([N+](=O)[O-])c2n1CC
  outcome: inactive

## O=C1NC(=O)C(Cc2ccccc2)(Cc2ccccc2)S1
  pEC50: < 4.76
  pIC50: < 4.76

## CN(C)CCNc1ncnc2nc(-c3ccccc3)c(-c3ccccc3)nc12
  pEC50: < 3.70
  pIC50: 3.95

## NC(Cc1ccc(OCc2ccccc2)cn1)C(=O)O (stereo not drawn)
  pEC50: < 3.70
  pIC50: < 3.70

## COc1ccc(O)c(/C(C)=N/NC(=S)N(C)C)c1
  pEC50: < 3.70
  pIC50: 4.97

## c1ccc2c(c1)nc1nc3c(cn12)CCCC3
  pEC50: < 3.82
  pIC50: < 3.82

## O=C(CCc1n[nH]c(=S)o1)Nc1ccccc1C(F)(F)F
  pEC50: < 3.53
  pIC50: 3.64

## COc1ccc2[nH]c3c(c2c1)COc1ccccc1C3=O
  pEC50: < 3.70
  pIC50: < 3.70

## Cc1cc(C23OC4COC(C)(C)OC4C2OC(C)(C)O3)nc2ccccc12 (stereo not drawn)
  pEC50: < 3.70
  pIC50: 3.99

## CCSc1nc(=[N+]2CCCC2)ss1
  outcome: inactive

## O=C1C2C(C(=O)N1c1ccccc1)C1(c3ccccc3)OC2(c2ccccc2)c2ccccc21 (stereo not drawn)
  outcome: inactive

## CC1=N[C@@](C)(C2CC3C=CC2C3=O)COC1=O (stereo partly drawn)
  pEC50: < 3.54
  pIC50: < 3.54

## CC1Cn2c(=O)[nH]c3cccc(c32)NC1=O (stereo not drawn)
  pEC50: < 3.70
  pIC50: 4.35

## CCOC(=O)C#CC(=O)OCC
  pEC50: < 3.70
  pIC50: 4.82

## C[C@@H]1C(=O)O[C@@H]2C[C@@]1(C)[C@@H]1C(=O)C3(O)OC14C2(C)OC(=O)[C@@]4(O)CCC1C3C(O)C=C2CC=CC(=O)[C@@]21C (stereo partly drawn)
  pEC50: < 3.70
  pIC50: 4.70

## CN1CCN(CCSC2Cc3cc(Cl)ccc3Sc3ccccc32)CC1 (stereo not drawn)
  pEC50: < 4.19
  pIC50: 5.11

## CCCCCC(=O)c1c(O)cc2c(c1O)C(=O)c1c(O)cc(O)cc1C2=O
  pEC50: < 3.70
  pIC50: 4.25

## N#CC(NCCc1ccccc1)c1ccc(OCCCCCCCCCCOc2ccc(C(C#N)NCCc3ccccc3)cc2)cc1 (stereo not drawn)
  pEC50: < 4.30
  pIC50: 4.64

## COC(=O)c1ccc(OCc2ccc3oc(=O)c(-c4ccccc4)nc3c2)cc1
  pEC50: < 5.85
  pIC50: < 5.85

## O=C(NNC(=S)NCc1ccccc1)c1csc(NC(=S)NC2CCCCC2)n1
  pEC50: < 3.70
  pIC50: 4.24

## Cc1ccc2c(c1)-c1c(C#N)c(N)nc(-c3ccc(Cl)cc3)c1CCS2(=O)=O
  pEC50: < 3.70
  pIC50: 5.50

## CN1CCc2cc(O)c3cc2C1Cc1ccc(cc1)Oc1cc(ccc1O)CC1c2c(cc4c(c2O3)OCO4)CCN1C (stereo not drawn)
  outcome: inactive

## COC(=O)C(Cc1c(-c2[nH]c3ccccc3c2CC(NC(C)=O)C(=O)OC)[nH]c2ccccc12)NC(C)=O (stereo not drawn)
  pEC50: < 3.70
  pIC50: < 3.70

## CC1C(=O)c2cc3c(cc2CCN(C)Cc2c1ccc1c2OCO1)OCO3 (stereo not drawn)
  pEC50: < 4.15
  pIC50: < 4.15

## CC(C)CCC[C@@H](C)C1CCC2[C@@H]3CC=C4C[C@@H](OP(=O)(O)OCCN(C)C)CC[C@]4(C)C3CC[C@@]21C (stereo partly drawn)
  pEC50: < 4.06
  pIC50: 4.93

## COC(=O)C1=CON2C3CC4CC(C3)CC(C4)C12C (stereo not drawn)
  pEC50: < 3.70
  pIC50: 3.87

## O=S(=O)(Cc1ccccc1)CS(=O)(=O)Cc1ccccc1
  pEC50: < 4.11
  pIC50: < 4.11

## CC(=O)c1ccc(NCc2cc(O)ccc2O)cc1
  pEC50: < 3.70
  pIC50: 4.97

## CC(=O)OCC1C(C(C)OC(C)=O)CCC2C1CCC1(C)C(OC(C)=O)CCC21 (stereo not drawn)
  pEC50: < 4.69
  pIC50: 4.78

## N#C[C@@]12CCCC(=O)[C@@H]1[C@H]1CCC[C@H]12
  pEC50: < 3.70
  pIC50: 4.11

## COc1ccc(C2=NC(c3ccccc3)N3C(c4ccccc4)NC(c4ccccc4)C2C3c2ccccc2)cc1 (stereo not drawn)
  outcome: inactive

## O=C1C2Nc3ccccc3SC2C(=O)N1c1ccccc1C(F)(F)F (stereo not drawn)
  pEC50: < 4.70
  pIC50: 4.82

## CC(=O)O[C@@H]1C(C2CCCCC2)C=[N+]([O-])O[C@@H]1OC1CCCC1(c1ccccc1)c1ccccc1 (stereo partly drawn)
  pEC50: < 3.70
  pIC50: 5.77

## O=C1NCCCCC1CC/C=C/c1ccccc1 (stereo not drawn)
  pEC50: < 3.83
  pIC50: 4.02

## Nc1nc(NC2CC2)c2ncn(C3C=CC(CO)CC3)c2n1 (stereo not drawn)
  pEC50: < 3.70
  pIC50: < 3.70

## NC(C(F)(F)F)(C(F)(F)F)P(=O)(Cc1ccccc1)Cc1ccccc1
  pEC50: < 3.70
  pIC50: 3.84

## CC(C)C(C(=O)N(C)C(Cc1ccccc1)C(=O)N(C)C(C(=O)N(C)C(C(=O)N1CCCC1C(=O)OC(C)(C)C)C(C)C)C(C)C)N(C)C (stereo not drawn) (ξNMe2Val-[NMeF][NMeV][NMeV]P-OtBu; configuration not given here)
  pEC50: 4.61
  pIC50: 3.96

## CC(C)=CC(=O)N1CC(C)Cn2c(=S)[nH]c3cccc1c32 (stereo not drawn)
  pEC50: < 3.70
  pIC50: < 3.70

## COc1ccccc1/C=C/C(=O)O
  pEC50: < 3.28
  pIC50: < 3.28

## COC(=O)C1=C(C(=O)OC)C2(C)Nc3ccccc3C2=C(c2ccccc2)C1 (stereo not drawn)
  pEC50: < 4.72
  pIC50: < 4.72

## COc1ccc(/C=C2/CSCC3=C2NC(=S)NC3c2ccc(OC)c(OC)c2OC)c(OC)c1OC (stereo not drawn)
  pEC50: < 3.70
  pIC50: 5.07

## O=S(=O)(O)c1cc(N=Nc2ccc(/C=C/c3ccc(N=Nc4cc(S(=O)(=O)O)c5cccnc5c4O)cc3S(=O)(=O)O)c(S(=O)(=O)O)c2)ccc1/C=C/c1ccc(N=Nc2cc(S(=O)(=O)O)c3cccnc3c2O)cc1S(=O)(=O)O
  pEC50: 6.08
  pIC50: 5.71

## C[C@H]1[C@H](N2CCCC2)O[Si](C(C)(C)C)(C(C)(C)C)[C@@H]1C
  pEC50: < 3.70
  pIC50: < 3.70

## O=C(c1ccccc1)C1C(C(=O)c2ccccc2)N1Cc1ccccc1 (stereo not drawn)
  pEC50: < 3.70
  pIC50: 4.22 and < 4.26

## CC1(C)C2(C(N)=O)C(=O)NC(=O)C12C(=O)O (stereo not drawn)
  pEC50: < 3.70
  pIC50: < 3.70

## Clc1ccc(C2ON=C(c3ccccc3)N2C23CC4CC(CC(C4)C2)C3)cc1 (stereo not drawn)
  pEC50: < 3.70
  pIC50: < 3.70

## CC(C)CC(NC(=O)OC(C)(C)C)C(=O)Nc1ccc(Nc2nc(F)nc(-c3c4ccccc4c4n3CCS4)n2)cc1 (stereo not drawn)
  pEC50: < 5.22
  pIC50: < 5.22

## N[C@@H](CSS[C@H](C(=O)O)[C@@H](SSC[C@H](N)C(=O)O)C(=O)O)C(=O)O
  pEC50: < 3.70
  pIC50: 4.45

## CN(C)C(=N)CSS(=O)(=O)O
  pEC50: 3.92
  pIC50: 3.74

## Cc1onc(-c2c(Cl)cccc2Cl)c1C(=O)SC1=NC(C)N2C(SC(=O)c3c(-c4c(Cl)cccc4Cl)noc3C)=NC(C)N12 (stereo not drawn)
  pEC50: < 4.72
  pIC50: 4.74

## O=C(O)CSC(NC(=O)C(C(F)(F)F)C(F)(F)F)(C(F)(F)F)C(F)(F)F
  pEC50: < 3.70
  pIC50: < 3.70

## O=C(C1OC1c1cccc([N+](=O)[O-])c1)C12CC3CC(CC(C3)C1)C2 (stereo not drawn)
  pEC50: < 3.70
  pIC50: 5.46

## CCCCOC(=O)/C(CC(=O)C=C(C)C)=N\NS(=O)(=O)c1ccc(C)cc1
  pEC50: < 3.76
  pIC50: < 3.76

## O=C(CCc1nnc2s/c(=C\c3ccc(Cl)c(Cl)c3)c(=O)n12)Nc1ccc(Cl)c(Cl)c1
  pEC50: < 4.88
  pIC50: < 4.88

## Cc1cc(S(=O)(=O)O)c(NC(=O)C(=O)Cc2cc(=O)oc3cc(O)ccc23)cc1Cl
  pEC50: < 4.10
  pIC50: < 4.10

## CC1(c2nc3ccccc3[nH]2)CCC(CO)C(C)(C)O1 (stereo not drawn)
  pEC50: < 3.70
  pIC50: < 3.70

## COc1ccc2c3c([nH]c2c1[N+](=O)[O-])C(C)=NCC3
  outcome: inactive

## CCC(C)N1CN(c2ccccc2)C2(CCN(CCCSc3ccc(F)cc3)CC2)C1=O (stereo not drawn)
  pEC50: < 3.70
  pIC50: 5.38

## Nc1ccc(S(=O)(=O)NCCSSCCNS(=O)(=O)c2ccc(N)cc2)cc1
  pEC50: < 3.70
  pIC50: 4.34

## CCCCNC(=O)Cn1c2ccc(Br)cc2c2nc3ccccc3nc21
  pEC50: < 4.00
  pIC50: < 4.00

## CN1C(=O)CNS1(=O)=O
  outcome: inactive

## O=CCc1c2c(nc3ccccc13)C(=O)c1ccccc1C2=O
  pEC50: < 4.70
  pIC50: 5.10

## NC1=Nc2ccccc2Sc2ccccc21
  pEC50: < 4.22
  pIC50: < 4.22

## CC(N)C(=O)NC(CO)C(=O)NC(Cc1ccc(O)cc1)C(=O)NC(CO)C(=O)NC(C(=O)O)C(C)O (stereo not drawn) (H-ASYST-OH; configuration not given here)
  pEC50: < 4.02
  pIC50: < 4.02

## CCS(=O)(=O)c1cc(=O)[nH]c(=O)[nH]1
  pEC50: 4.00
  pIC50: 3.62

## CCOP(=O)(OCC)/C(C#N)=C/c1cccc(Oc2ccccc2)c1
  pEC50: < 4.28
  pIC50: 4.52
